Assay results taken from US7317033B2, “Substituted thiophenes: compositions, processes of making, and uses in disease treatment and diagnosis” (Sanofi-Aventis Deutschland GmbH, priority 2002, dated 2008).
Structures can show the parent of a compound that is named as a salt.

Experiments:
hNHE3 = molecular target: T1, hNHE3 (Homo sapiens, UniProt P48764); assay: recovery of intracellular pH (pHi) after acidification, BCECF fluorescence, hNHE3; type: cell-based; conditions: pH recovery recorded for three minutes
T1 construct: host or cells: cells, not specified
T1 sequence (P48764 26-834): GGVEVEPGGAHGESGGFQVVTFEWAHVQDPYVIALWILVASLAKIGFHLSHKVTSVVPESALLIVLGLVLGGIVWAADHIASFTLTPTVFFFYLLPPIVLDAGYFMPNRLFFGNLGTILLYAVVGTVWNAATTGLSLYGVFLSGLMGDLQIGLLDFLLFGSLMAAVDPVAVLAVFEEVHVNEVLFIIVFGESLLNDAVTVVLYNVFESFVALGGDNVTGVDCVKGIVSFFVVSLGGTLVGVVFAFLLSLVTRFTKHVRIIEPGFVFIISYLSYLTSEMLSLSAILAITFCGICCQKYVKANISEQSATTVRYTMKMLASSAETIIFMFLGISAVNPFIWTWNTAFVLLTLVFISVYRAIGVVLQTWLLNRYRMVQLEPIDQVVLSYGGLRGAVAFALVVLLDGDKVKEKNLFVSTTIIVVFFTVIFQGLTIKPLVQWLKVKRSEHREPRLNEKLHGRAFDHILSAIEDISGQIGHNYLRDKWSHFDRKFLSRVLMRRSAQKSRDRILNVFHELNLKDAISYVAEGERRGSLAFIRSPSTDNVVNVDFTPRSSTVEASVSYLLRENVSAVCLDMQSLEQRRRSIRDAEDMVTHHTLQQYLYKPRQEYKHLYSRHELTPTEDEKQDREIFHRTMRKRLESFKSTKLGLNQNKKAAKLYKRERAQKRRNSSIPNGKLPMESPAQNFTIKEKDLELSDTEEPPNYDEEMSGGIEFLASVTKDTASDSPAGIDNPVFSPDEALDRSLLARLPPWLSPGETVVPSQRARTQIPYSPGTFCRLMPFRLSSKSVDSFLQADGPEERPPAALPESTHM
Description: In this test, the recovery of the intracellular pH (pHi) after an acidification, which starts when the NHE is capable of functioning, even under bicarbonate-free conditions, was determined. For this purpose, the pHi was determined using the pH-sensitive fluorescent dye BCECF (Calbiochem, the precursor BCECF-AM is employed). The cells were initially loaded with BCECF. The BCECF fluorescence was determined in a “ratio fluorescence spectrometer” (Photon Technology International, South Brunswick, N.J., USA) with excitation wavelengths of 505 and 440 nm and an emission wavelength of 535 nm, and was converted into the pHi using calibration plots. The cells were incubated in NH4Cl buffer (pH 7.4) (NH4Cl buffer: 115 mM NaCl, 20 mM NH4Cl, 5 mM KCl, 1 mM CaCl2, 1 mM MgSO4, 20 mM Hepes, 5 mM glucose, 1 mg/ml BSA; a pH of 7.4 is established with 1 M NaOH) even during the BCECF loading. The intracellular acidification was induced by addition of 975 μl of an NH4Cl-free buffer (see below) to 25 μl aliquots of the cells incubated in NH4Cl buffer. The subsequent rate of pH recovery was recorded in the case of NHE1 for two minutes, in the case of NHE2 for five minutes and in the case of NHE3 for three minutes. To calculate the inhibitory power of the tested substances, the cells were initially investigated in buffers in which complete or absolutely no pH recovery took place. For complete pH recovery (100%), the cells were incubated in Na^+-containing buffer (133.8 mM NaCl, 4.7 mM KCl, 1.25 mM CaCl2, 1.25 mM MgCl2, 0.97 mM Na2HPO4, 0.23 mM NaH2PO4, 5 mM Hepes, 5 mM glucose, a pH of 7.0 is established with 1 M NaOH). To determine the 0% value, the cells were incubated in an Na^+-free buffer (133.8 mM choline chloride, 4.7 mM KCl, 1.25 mM CaCl2, 1.25 mM MgCl2, 0.97 mM K2HPO4, 0.23 mM KH2PO4, 5 mM Hepes, 5 mM glucose, a pH of 7.0 is established with 1 M KOH). The substances to be tested were made up in the Na^+-containing buffer. Recovery of the intracellular pH at each tested concentration of a substance was expressed as a percentage of the maximum recovery. Using the Sigma-Plot program, the IC50 value of the substance in question was calculated for the individual NHE subtypes using the percentages for pH recovery.

rNHE3 = molecular target: T2, rNHE3 (Rattus norvegicus, UniProt P26433); assay: recovery of intracellular pH (pHi) after acidification, BCECF fluorescence, rNHE3; type: cell-based; conditions: pH recovery recorded for three minutes
T2 construct: host or cells: cells, not specified
T2 sequence (P26433 29-831): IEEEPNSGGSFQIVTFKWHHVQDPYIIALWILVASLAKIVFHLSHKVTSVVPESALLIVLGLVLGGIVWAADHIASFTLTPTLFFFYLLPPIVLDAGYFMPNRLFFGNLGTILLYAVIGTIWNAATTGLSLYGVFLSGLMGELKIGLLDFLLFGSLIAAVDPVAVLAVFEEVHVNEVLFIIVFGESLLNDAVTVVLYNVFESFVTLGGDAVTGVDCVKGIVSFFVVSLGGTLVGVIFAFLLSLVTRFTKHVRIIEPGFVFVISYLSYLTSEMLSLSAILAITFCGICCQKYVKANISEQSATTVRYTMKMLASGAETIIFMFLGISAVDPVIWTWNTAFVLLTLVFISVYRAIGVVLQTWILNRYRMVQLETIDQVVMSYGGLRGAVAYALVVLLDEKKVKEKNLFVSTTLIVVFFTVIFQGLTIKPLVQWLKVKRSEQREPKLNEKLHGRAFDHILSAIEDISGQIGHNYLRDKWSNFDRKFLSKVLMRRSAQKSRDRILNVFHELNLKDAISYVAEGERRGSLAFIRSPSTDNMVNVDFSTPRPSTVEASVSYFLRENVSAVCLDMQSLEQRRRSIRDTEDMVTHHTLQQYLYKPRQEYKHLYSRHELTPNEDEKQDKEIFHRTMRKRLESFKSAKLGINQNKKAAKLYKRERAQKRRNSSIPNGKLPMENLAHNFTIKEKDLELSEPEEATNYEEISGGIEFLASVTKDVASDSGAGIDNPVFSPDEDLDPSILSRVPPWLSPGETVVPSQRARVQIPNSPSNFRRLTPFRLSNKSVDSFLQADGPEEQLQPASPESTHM
Description: In this test, the recovery of the intracellular pH (pHi) after an acidification, which starts when the NHE is capable of functioning, even under bicarbonate-free conditions, was determined. For this purpose, the pHi was determined using the pH-sensitive fluorescent dye BCECF (Calbiochem, the precursor BCECF-AM is employed). The cells were initially loaded with BCECF. The BCECF fluorescence was determined in a “ratio fluorescence spectrometer” (Photon Technology International, South Brunswick, N.J., USA) with excitation wavelengths of 505 and 440 nm and an emission wavelength of 535 nm, and was converted into the pHi using calibration plots. The cells were incubated in NH4Cl buffer (pH 7.4) (NH4Cl buffer: 115 mM NaCl, 20 mM NH4Cl, 5 mM KCl, 1 mM CaCl2, 1 mM MgSO4, 20 mM Hepes, 5 mM glucose, 1 mg/ml BSA; a pH of 7.4 is established with 1 M NaOH) even during the BCECF loading. […] The subsequent rate of pH recovery was recorded in the case of NHE1 for two minutes, in the case of NHE2 for five minutes and in the case of NHE3 for three minutes. […] Recovery of the intracellular pH at each tested concentration of a substance was expressed as a percentage of the maximum recovery. Using the Sigma-Plot program, the IC50 value of the substance in question was calculated for the individual NHE subtypes using the percentages for pH recovery.

Structure (SMILES) | IC50 (hNHE3) | other results
Cc1csc(Cl)c1Nc1nc2c(O)cccc2[nH]1 [Example 38, 2-Chloro-3N-(4-hydroxy-2-benzimidazolylamino)-4-methylthiophene hydrochloride] | 840 nM | –
Cc1csc(Br)c1NC1=N[C@@H]2CCCC[C@H]2N1 [Example 19, trans-R,R-2-Bromo-3N-(3a,4,5,6,7,7a-hexahydro-1H-2-benz-imidazolyl)-4-methyl-3-thienylamine hydrochloride] | 560 nM | –
Cc1csc(Cl)c1Nc1nc2ccccc2[nH]1 [Example 12, 2-Chloro-3N-(2-benzimidazolyl)-4-methyl-3-thienylamine hydrochloride] | – | IC50 (rNHE3): 120 nM
Cc1csc(Cl)c1Nc1nc2cc(F)ccc2[nH]1 (as salt: hydrochloride) [Example 2, 2-Chloro-3N-(5-fluoro-2-benzimidazolyl)-4-methyl-3-thienylamine hydrochloride] | – | melting point: 200 to 202 °C
Cc1csc(Cl)c1NC1=N[C@@H]2CCCC[C@H]2N1 (as salt: hydrochloride) [Example 16, trans-R,R-2-chloro-3N-(3a,4,5,6,7,7a-hexahydro-1H-2-benzimidazolyl)-4-methyl-3-thienylamine hydrochloride] | – | melting point: 260 to 262 °C
Cc1csc(Cl)c1NC1=N[C@@H]2CCCC[C@H]2N1 [Example 16, trans-R,R-2-chloro-3N-(3a,4,5,6,7,7a-hexahydro-1H-2-benzimidazolyl)-4-methyl-3-thienylamine hydrochloride] | – | IC50 (rNHE3): 270 nM
Cc1csc(Br)c1Nc1nc2ccccc2[nH]1 [Example 18, 2-Bromo-3N-(2-benzimidazolyl)-4-methyl-3-thienylamine hydrochloride] | 120 nM | –
Cc1csc(Cl)c1Nc1nc2cc(F)ccc2[nH]1 [Example 2, 2-Chloro-3N-(5-fluoro-2-benzimidazolyl)-4-methyl-3-thienylamine hydrochloride] | 620 nM | –

The next lines start with results.

IC50 (hNHE3) | Structure (SMILES) | other results
190 nM | Clc1cscc1NC1=N[C@H]2CCCC[C@@H]2N1 [Example 60, trans-(3aS,7aS)-4-Chloro-3N-(3a,4,5,6,7,7a-hexahydro-1H-2-benzimidazolyl)-3-thienylamine Hydrochloride] | –
220 nM | Fc1ccc2[nH]c(Nc3c(Cl)csc3Cl)nc2c1 [Example 54, (2,4-Dichloro-thiophen-3-yl)-(5-fluoro-1H-benzoimidazol-2-yl)-amine-hydrochloride] | –
220 nM | Fc1cc2nc(Nc3c(Cl)csc3Cl)[nH]c2cc1F [Example 56, (2,4-Dichloro-thiophen-3-yl)-(5,6-difluoro-1H-benzoimidazol-2-yl)-amine-hydrochloride] | –
1590 nM | Cc1csc(Cl)c1N(C)c1nc2ccccc2[nH]1 [Example 44, (1H-Benzimidazol-2-yl)-(2-chloro-4-methylthiophen-3-yl)methylamine] | –
540 nM | Clc1csc(Cl)c1NC1=N[C@@H]2CCCC[C@H]2N1 [Example 63, trans-R,R-2,4-Dichloro-3N-(3a,4,5,6,7,7a-hexahydro-1H-2-benzimidazolyl)-3-thienylamine Hydrochloride] | –
140 nM | Clc1csc(Br)c1Nc1nc2ccccc2[nH]1 [Example 53, 2-Bromo-4-chloro-3N-(2-benzimidazolylamino)thiophene hydrochloride] | –
